{"source": "patent US20210205329A1", "about": "(The University of North Carolina at Chapel Hill, priority 2018, published 2021)", "key": {"[1]": {"tested_on": "MCP-1", "test": "MCP-1 ELISA in P rat NAc", "type": "in vivo", "conditions": "15 mg/kg I.P., 45 min", "method": "(§1) ELISA. Brain tissue micropunches were lysed with Cellyte MT and the extracts were assayed for protein content by the BCA procedure (Pierce) and for MCP-1 using the rat MCP-1 ELISA kit (Raybiotech—ERC-MCP-1-CL; Norcross, Ga., USA) or for fracktalkine using the rat fractalkine ELISA kit (Raybiotech—ERC-CX3CL1-CL; Norcross, Ga., USA) as per manufacturer's instructions.\n(§2) Next, potential sex differences were directly examined in baseline or 3α,5α-THP inhibition of MCP-1 and pIRF7 expression in female vs. male P rat NAc (FIG. 9). […] Systemic administration of 3α,5α-THP (15 mg/kg, I.P.) to naïve female and male P rats inhibited the expression of MCP-1 (40% in female rat NAc; 25% in male rat NAc). Likewise, 3α,5α-THP administration to naïve female and male P rats inhibited the expression of pIRF7 to the same extent, (55% in female rat NAc; 55% in male rat NAc)."}, "[2]": {"tested_on": "CX3CL1", "test": "CX3CL1 (fracktalkine) ELISA in P rat NAc", "type": "in vivo", "conditions": "15 mg/kg IP, 45 min", "method": "Rats were administered VEH or 3α,5α-THP (15 mg/kg, IP) and sacrificed after 45 min. CX3CL1 was measured by ELISA (Raybiotech—ERC-CX3CL1-CL; Norcross, Ga., USA) as per manufacturer's instructions. (Two-way ANOVA: F (1,28)=13.63, P<0.001, Tukey's multiple comparisons test *P<0.05).\nas §1\nActivation of TLR4 signaling can result in the production of both pro-inflammatory and anti-inflammatory cytokines in P rat brain, but the factors that determine the outcome of TLR4 activation are unknown. […] 3α,5α-THP administration to naïve female and male P rats enhanced the expression of CX3CL1 by 90% in female rat NAc and 34% in male rat NAc. No sex difference in the effect of 3α,5α-THP was observed."}, "[3]": {"tested_on": "CX3CL1", "test": "CX3CL1 expression in human macrophages", "type": "cell-based", "conditions": "1 μM"}, "[4]": {"tested_on": "TLR7 signal in P rat NAc", "test": "TLR7 signal in P rat NAc after systemic 3α,5α-THP (immunoblot)", "type": "in vivo", "conditions": "15 mg/kg I.P.", "method": "Neuropsychopharmacology 40(8): 1549-1559; Aurelian L, et al. (2016). Transl Psychiatry 6: e815). Systemic administration of 3α,5α-THP (15 mg/kg, I.P.) to naïve female P rats inhibited the expression of TLR7 (40%), pIRF7 (40%), and TRAF6 (40%) in P rat NAc, with no effect on IRF3. Similar results were obtained in a separate study of the male P rats.\nas §2"}, "[5]": {"tested_on": "MCP-1", "test": "MCP-1 ELISA in VTA, amygdala and hypothalamus of female and male P rats", "type": "in vivo, rat", "conditions": "15 mg/kg IP", "method": "(Two-way ANOVA: F (1,28)=20.92, P<0.0001), and Hypothalamus [female (27%) and male (32%)] (Two-way ANOVA: F (1,28)=31.55, P<0.0001).\nas §1\nTo determine if the effects of 3α,5α-THP on MCP-1 were selective for P rat NAc, the effects of 3α,5α-THP administration in VTA, Amygdala and Hypothalamus of both female and male P rats was examined."}, "[6]": {"tested_on": "TLR2 signaling", "test": "Pam3Cys-activated TLR2 signaling in RAW264.7 cells", "type": "cell-based, mouse", "method": "Because multiple TLRs signal through MD-2, […] and MyD-88, the specificity of the neurosteroid 3α,5α-THP on TLR2, TLRS and TLR7 signal activation was examined in RAW264.7 ceils (FIG. 7). Pam3Cys (10 μg/ml) activated TLR2 signaling, evidenced by increases in pCREB, pERK1/2, TRAF6 and pATF-2, that were sustained for 24 hrs and inhibited by 3α,5α-THP (1 μM) (50-60% compared to vehicle)."}, "[7]": {"test": "3α,5α-THP radioimmunoassay of RAW264.7 cell culture media (conversion of pregnenolone)", "type": "in vitro ADME, mouse", "method": "3α,5α-THP Radioimmunoassay (RIA), 3α,5α-THP concentrations in the RAW264.7 cell media were measured by radioimmunoassay as described elsewhere (VanDoren et al, 2000), modified for use with cell media (Cook et al, 2014), Briefly, 3α,5α-THP was extracted from ceil media three times with 3 ml of ethyl acetate and spiked with 1000 counts per minute of [^3H]3α,5α-THP for recovery. The extracts were purified using solid phase silica columns (Burdick and Jackson, Muskegon, Mich.) and used for the assay (run in duplicate) and for recovery measurement. Steroid levels in the samples were extrapolated from a concurrently run standard curve and corrected for their respective extraction efficiencies. The 3α,5α-THP antibody (1:500) was provided by the late Dr. Robert Purdy at Scripps Research Institute. […] The validity of the assay has been verified by gas chromatography mass spectrometry determinations (Porcu et al, 2010), 3α,5α-THP values are expressed as ng/ml of cell media.\nSince pregnenolone is a precursor for 3α,5α-THP, the possibility that pregnenolone may have been converted in the RAW264.7 cells was considered by analysis of 3α,5α-THP levels in the cell culture media at the time of cell harvest, 3α,5α-THP was detected at less than 0.69±0.11 nmol/L, indicative of less than 0.1% conversion of 1.0 μM pregnenolone."}}, "note": "Where “and” joins values, the source holds several entries; their conditions need not be identical. Equal entries are not always repeated."}
{"smiles": "CC(=O)[C@H]1CC[C@H]2[C@@H]3CC[C@H]4C[C@H](O)CC[C@]4(C)[C@H]3CC[C@]12C", "note": "[3α,5α-THP, (3α,5α)3-hydroxypregnan-20-one]", "values": [{"measurement": "inhibition of MCP-1 expression in NAc", "setting": "[1]; naïve female P rats", "value": 40, "unit": "%"}, {"measurement": "inhibition of MCP-1 expression in NAc", "setting": "[1]; naïve male P rats", "value": 25, "unit": "%"}, {"measurement": "enhancement of CX3CL1 expression in NAc", "setting": "[2]; naïve female P rats", "value": 90, "unit": "%"}, {"measurement": "enhancement of CX3CL1 expression in NAc", "setting": "[2]; naïve male P rats", "value": 34, "unit": "%"}, {"measurement": "expression of the anti-inflammatory cytokine CX3CL1", "setting": "[3]", "value": "increases expression"}, {"measurement": "inhibition of TRAF6", "setting": "[4]; male P rats", "value": 45, "unit": "%"}, {"measurement": "effect on IRF3 in NAc", "setting": "[4]; naïve female P rats", "value": "no effect"}, {"measurement": "inhibition of TLR7 expression in NAc", "setting": "[4]; naïve female P rats", "value": 40, "unit": "%"}, {"measurement": "inhibition of TRAF6 expression in NAc", "setting": "[4]; naïve female P rats", "value": 40, "unit": "%"}, {"measurement": "inhibition of pIRF7 expression in NAc", "setting": "[4]; naïve female P rats", "value": "40% and 55%"}, {"measurement": "inhibition of pIRF7 expression in NAc", "setting": "[4]; naïve male P rats", "value": 55, "unit": "%"}, {"measurement": "reduction of MCP-1 levels in Amygdala", "setting": "[5]; female P rats", "value": 47, "unit": "%"}, {"measurement": "reduction of MCP-1 levels in Hypothalamus", "setting": "[5]; female P rats", "value": 27, "unit": "%"}, {"measurement": "reduction of MCP-1 levels in VTA", "setting": "[5]; female P rats", "value": 27, "unit": "%"}, {"measurement": "reduction of MCP-1 levels in Amygdala", "setting": "[5]; male P rats", "value": 58, "unit": "%"}, {"measurement": "reduction of MCP-1 levels in Hypothalamus", "setting": "[5]; male P rats", "value": 32, "unit": "%"}, {"measurement": "reduction of MCP-1 levels in VTA", "setting": "[5]; male P rats", "value": 21, "unit": "%"}, {"measurement": "effect of Pam3Cys on pCREB, pERK1/2, pATF2 and TRAF6", "setting": "[6]; 1 μM, Pam3Cys 10 μg/ml, harvested after 24 hrs", "value": "completely inhibited"}, {"measurement": "inhibition at 1 µM", "setting": "[6]; Mus musculus, RAW264.7, Pam3Cys 10 μg/ml, 24 hrs, compared to vehicle, read-out: inhibition of Pam3Cys-induced increases in pCREB, pERK1/2, TRAF6 and pATF-2", "value": "50 to 60", "unit": "%"}]}
{"smiles": "CC(=O)[C@H]1CC[C@H]2[C@@H]3CC=C4C[C@@H](O)CC[C@]4(C)[C@H]3CC[C@]12C", "note": "[pregnenolone]", "values": [{"measurement": "conversion of pregnenolone to 3α,5α-THP", "setting": "[7]; 1.0 μM pregnenolone, RAW264.7 cells", "value": "less than 0.1%"}, {"measurement": "3α,5α-THP level in the cell culture media at the time of cell harvest", "setting": "[7]; RAW264.7 cells treated with 1.0 μM pregnenolone", "value": "less than 0.69±0.11 nmol/L"}]}
